In brackets after ≈: the same amount, converted by molar mass.
Key:
Type in all cases: cell-based
[1] = test system: B. thailandensis ATCC E264; experiment: microbe, parasite or virus in culture; conditions: for MIC: Burkholderia thailandensis, ATCCE264, read-out: MIC Bt
[2] = test system: F. tularensis holarctica LVS; experiment: microbe, parasite or virus in culture; conditions: for MIC: Francisella tularensis, read-out: MIC Ft; for MIC Ft: Ft = F. tularensis, strain not given
[3] = test system: K. pneumoniae ATCC 700603; experiment: MIC, K. pneumoniae ATCC 700603; conditions: for MIC: Klebsiella pneumoniae, ATCC700603, read-out: MIC Kpn; for MIC Kpn: Kpn = K. pneumoniae
[4] = test system: A. baumannii ATCC 19606; experiment: MIC, A. baumannii ATCC 19606; conditions: strain not given; for MIC: Acinetobacter baumannii, ATCC19606, Ab = A. baumannii
[5] = test system: E. coli ATCC 25922; experiment: MIC, E. coli ATCC 25922; conditions: for MIC: Escherichia coli
[6] = test system: P. aeruginosa ATCC 15692; experiment: MIC, P. aeruginosa ATCC 15692; conditions: for MIC: Pseudomonas aeruginosa, ATCC15692, Pa = P. aeruginosa
[7] = test system: Y. pestis CO92 pgm-; experiment: microbe, parasite or virus in culture; conditions: for MIC: Yersinia pestis, CO92PGM, read-out: MIC Yp; for MIC Yp: Yp = Y. pestis
[8] = test system: S. aureus ATCC 13709; experiment: MIC, S. aureus ATCC 13709 (Alamar Blue broth microdilution); conditions: for MIC: Staphylococcus aureus
[9] = test system: S. pneumoniae ATCC 51916; experiment: MIC, S. pneumoniae ATCC 51916; conditions: for MIC: Streptococcus pneumoniae, ATCC51916, Spn = S. pneumoniae
[10] = ATCC25922, E. coli, Alamar Blue read after overnight incubation at 35° C.
[11] = ATCC25922, Ec = E. coli, strain not given
[12] = ATCC13709, S. aureus, Alamar Blue read after overnight incubation at 35° C.
[13] = E. coli, Alamar Blue read after overnight incubation at 35° C.
[14] = S. aureus, Alamar Blue read after overnight incubation at 35° C.

Structure (SMILES)	MIC Bt [1] [mg/L]	MIC Ft [2] [mg/L]	MIC Kpn [3] [mg/L]	MIC Ab [4] [mg/L]	MIC Ec [5, 13] [mg/L]	MIC Ec ([5]; Ec = E. coli, strain not given) [mg/L]	MIC Pa [6] [mg/L]	MIC Yp [7] [mg/L]	MIC Sa [8, 14] [mg/L]	MIC Sa ([8]; Sa = S. aureus) [mg/L]	MIC Spn [9] [mg/L]	other results
CNc1cc(F)cc2c1[nH]c1nc(Oc3cnc(C)nc3)nc(N3CCC4(CC4N)C3)c12 (stereo not shown) [4.066]												MIC [1]: ≤ 0.5 mg/L; MIC [2]: 1 mg/L (≈ 2.3 µM); MIC [3]: 2 mg/L (≈ 4.6 µM); MIC [4]: ≤ 0.5 mg/L; MIC [5, 10]: ≤ 0.5 mg/L; MIC [5, 11]: ≤ 0.5 mg/L; MIC [6]: 2 mg/L (≈ 4.6 µM); MIC [7]: ≤ 0.5 mg/L; MIC [8, 12]: ≤ 0.5 mg/L; MIC ([8]; ATCC13709, Sa = S. aureus): ≤ 0.5 mg/L; MIC [9]: ≤ 0.5 mg/L
CNc1cc(F)cc2c1[nH]c1nc(Oc3cnc(C)nc3)nc(N3C[C@H]4CCN[C@H]4C3)c12 [4.103]	≤0.5	1 (≈ 2.3 µM)	2 (≈ 4.6 µM)	≤0.5	≤0.5	≤0.5	2 (≈ 4.6 µM)	≤0.5	≤0.5	≤0.5	≤0.5	
CNc1cc(F)cc2c1[nH]c1nc(Oc3cnc(C)nc3)nc(N3CC4CC3C[C@@H]4N)c12 (stereo partly shown) [4.131]	≤0.5	≤0.5	2 (≈ 4.6 µM)	≤0.5	≤0.5	≤0.5	1 (≈ 2.3 µM)	≤0.5	≤0.5	≤0.5	≤0.5	
CNc1cc(F)cc2c1[nH]c1nc(Oc3cnc(C)nc3)nc(N3CC4C(N)C4C3)c12 (stereo not shown) [4.073]	≤0.5	1 (≈ 2.38 µM)	2 (≈ 4.76 µM)	≤0.5	≤0.5	≤0.5	4 (≈ 9.51 µM)	≤0.5	≤0.5	≤0.5	≤0.5	
CNc1cc(F)cc2c1[nH]c1nc(Oc3cnc(C)nc3)nc(N3CC4CCCNC4C3)c12 (stereo not shown) [4.079]	1 (≈ 2.23 µM)	4 (≈ 8.92 µM)	8 (≈ 17.8 µM)	≤0.5	≤0.5	≤0.5	4 (≈ 8.92 µM)	≤0.5	≤0.5	≤0.5	≤0.5	
CNc1cc(F)cc2c1[nH]c1nc(Oc3cnc4cccnc4c3)nc(N3CC4(CCC4N)C3)c12 (stereo not shown) [4.045]	1 (≈ 2.13 µM)	2 (≈ 4.25 µM)	8 (≈ 17 µM)	≤0.5	≤0.5	≤0.5	4 (≈ 8.5 µM)	≤0.5	≤0.5	≤0.5	≤0.5	
CNc1cc(F)cc2c1[nH]c1nc(Oc3cnc(C)nc3)nc(N3CC(N)C4(CC4)C3)c12 (stereo not shown) [4.069]	≤0.5	2 (≈ 4.6 µM)	2 (≈ 4.6 µM)	≤0.5		≤0.5	4 (≈ 9.21 µM)	≤0.5		≤0.5	≤0.5	
CNc1cc(F)cc2c1[nH]c1nc(Oc3cnc4cccnc4c3)nc(N3CC4C(N)C4C3)c12 (stereo not shown) [4.035]												MIC [1]: ≤ 0.5 mg/L; MIC [2]: 1 mg/L (≈ 2.19 µM); MIC [3]: 2 mg/L (≈ 4.38 µM); MIC [4]: ≤ 0.5 mg/L; MIC [5, 10]: ≤ 0.5 mg/L; MIC [5, 11]: ≤ 0.5 mg/L; MIC [6]: 4 mg/L (≈ 8.76 µM); MIC [7]: ≤ 0.5 mg/L; MIC [8, 12]: ≤ 0.5 mg/L; MIC ([8]; ATCC13709, Sa = S. aureus): ≤ 0.5 mg/L; MIC [9]: ≤ 0.5 mg/L
CNc1cc(F)cc2c1[nH]c1nc(Oc3cnc(C)nc3)nc(N3CC4CC(N)C4C3)c12 (stereo not shown) [4.084]	≤0.5	≤0.5	4 (≈ 9.21 µM)	≤0.5	≤0.5	≤0.5	1 (≈ 2.3 µM)	≤0.5	≤0.5	≤0.5	≤0.5	

— US10858360B2, “Tricyclic gyrase inhibitors” (priority 2011, dated 2020)
